Here are results for 22 compounds from patent publication US5608091A, “Quinizarin compound, method for production thereof, and use therefor” (Nippon Shokubai Co., Ltd., priority 1993, dated 1997).

Type in all cases: physicochemical
One data set is described as follows: Color tone of the dye. The conditions noted are these: Tables 1-9.
The nature of data set [1]: Visible absorption spectrum (λmax, ε). The conditions noted are these: in chloroform; for ε: at λ max, in M-1 cm-1 (unit assumed).
Data set [2] is described as follows: Solubility in toluene and methyl ethyl ketone, three-point scale. From the text:
In these tables, the solubility is rated on the three-point scale, wherein Δ stands for a solubility of less than 1% by weight, .largecircle. for a solubility in the approximate range of 1 to 3% by weight, and .circleincircle. for a solubility of not less than 3% by weight.

Consider `CC(C)(C)c1ccc(Nc2c(F)c(F)c3c(c2F)C(=O)c2c(O)ccc(O)c2C3=O)cc1` [(13)], for which the Color tone entry in “Color tone of the dye” was “Magenta”. In data set [1], this compound returned a λ max of 540 nm and a ε of 11900. Besides, in data set [2], the “Solubility in methyl ethyl ketone” value is “.largecircle. (a solubility in the approximate range of 1 to 3% by weight)” and the Solubility in toluene result is reported as “.largecircle. (a solubility in the approximate range of 1 to 3% by weight)”.
As to `COc1ccccc1Nc1c(F)c(F)c2c(c1F)C(=O)c1c(O)ccc(O)c1C2=O` [(14)], the Color tone result in the data set “Color tone of the dye” was “Purple”. In data set [1], the λ max amounted to 557 nm and the ε worked out at 15300. Moreover, in data set [2], the “Solubility in methyl ethyl ketone” value was “.largecircle. (a solubility in the approximate range of 1 to 3% by weight)” and the Solubility in toluene entry is “.largecircle. (a solubility in the approximate range of 1 to 3% by weight)”.
For `COc1ccc(Nc2c(F)c(F)c3c(c2F)C(=O)c2c(O)ccc(O)c2C3=O)cc1` [(15)], the Color tone result in “Color tone of the dye” is “Magenta”. In addition, in data set [1], the λ max worked out at 542 nm and the ε stood at 10200. Further, in data set [2], the “Solubility in methyl ethyl ketone” value was “.largecircle. (a solubility in the approximate range of 1 to 3% by weight)” and the Solubility in toluene result is “.largecircle. (a solubility in the approximate range of 1 to 3% by weight)”.
`COc1cccc(Nc2c(F)c(F)c3c(c2F)C(=O)c2c(O)ccc(O)c2C3=O)c1` [(16)]: the Color tone entry in the data set “Color tone of the dye” is listed as “Magenta”. In data set [1], the λ max was determined as 532 nm and the ε was found to be 16300. In addition, in data set [2], the “Solubility in methyl ethyl ketone” value was “.largecircle. (a solubility in the approximate range of 1 to 3% by weight)” and the Solubility in toluene result was “.largecircle. (a solubility in the approximate range of 1 to 3% by weight)”.
On to `CCc1cccc(CC)c1Nc1c(F)c(F)c2c(c1F)C(=O)c1c(O)ccc(O)c1C2=O` [(18)], for which the Color tone result in “Color tone of the dye” is “Magenta”. In data set [1], this compound came in with a λ max of 528 nm and a ε of 14200. Besides, in data set [2], the “Solubility in methyl ethyl ketone” value is “.largecircle. (a solubility in the approximate range of 1 to 3% by weight)” and the Solubility in toluene entry is given as “.circleincircle. (a solubility of not less than 3% by weight)”.
On to `CC(C)c1cccc(C(C)C)c1Nc1c(F)c(F)c2c(c1F)C(=O)c1c(O)ccc(O)c1C2=O` [(25)], for which, in “Color tone of the dye”, the Color tone entry was “Magenta”. In data set [1], this compound showed a λ max of 530 nm and a ε of 12800. In addition, in data set [2], the “Solubility in methyl ethyl ketone” value is listed as “.largecircle. (a solubility in the approximate range of 1 to 3% by weight)” and the Solubility in toluene entry is recorded as “.circleincircle. (a solubility of not less than 3% by weight)”.
In the same order, the values of `CCCCCCCCOc1c(F)c2c(c(F)c1Nc1cccc(C(=O)OCC)c1)C(=O)c1c(O)ccc(O)c1C2=O` [(34)] are “Magenta”, 531 nm, 12400, “.circleincircle. (a solubility of not less than 3% by weight)” and “.circleincircle. (a solubility of not less than 3% by weight)”.
`CCCCNc1c(F)c(F)c2c(c1F)C(=O)c1c(O)ccc(O)c1C2=O` [(117)]: in the data set “Color tone of the dye”, the Color tone entry is recorded as “Magenta”. In data set [1], this compound registered a λ max of 533 nm and a ε of 17900. In addition, in data set [2], the “Solubility in methyl ethyl ketone” value was “.largecircle. (a solubility in the approximate range of 1 to 3% by weight)” and the Solubility in toluene result is listed as “.largecircle. (a solubility in the approximate range of 1 to 3% by weight)”.
`O=C1c2c(O)ccc(O)c2C(=O)c2c(F)c(NC3CCCCC3)c(F)c(F)c21` [(119)]: the Color tone entry in the data set “Color tone of the dye” is on record as “Magenta”. In data set [1], this compound showed a λ max of 536 nm and a ε of 24500. Further, in data set [2], the “Solubility in methyl ethyl ketone” value is on record as “.largecircle. (a solubility in the approximate range of 1 to 3% by weight)” and the Solubility in toluene entry was “.largecircle. (a solubility in the approximate range of 1 to 3% by weight)”.
Consider `O=C1c2c(O)ccc(O)c2C(=O)c2c(F)c(Nc3ccccc3)c(Nc3ccccc3)c(F)c21` [(120)], for which the Color tone result in the data set “Color tone of the dye” was “Cyan”. Moreover, in data set [1], the λ max amounted to 648 nm and the ε is 19800. Further, in data set [2], the “Solubility in methyl ethyl ketone” value is reported as “Δ (a solubility of less than 1% by weight)” and the Solubility in toluene entry was “Δ (a solubility of less than 1% by weight)”.
Regarding `CCOC(=O)c1cccc(Nc2c(F)c3c(c(F)c2Nc2cccc(C(=O)OCC)c2)C(=O)c2c(O)ccc(O)c2C3=O)c1` [(121)], the Color tone entry in the data set “Color tone of the dye” is given as “Cyan”. Moreover, in data set [1], the λ max worked out at 644 nm and the ε turned out to be 20100. Also, in data set [2], the “Solubility in methyl ethyl ketone” value is “.largecircle. (a solubility in the approximate range of 1 to 3% by weight)” and the Solubility in toluene result was “.largecircle. (a solubility in the approximate range of 1 to 3% by weight)”.
On to `CCCCOC(=O)c1ccccc1Nc1c(F)c2c(c(F)c1Nc1ccccc1C(=O)OCCCC)C(=O)c1c(O)ccc(O)c1C2=O` [(122)], for which the Color tone entry in the data set “Color tone of the dye” is reported as “Blue”. Also, in data set [1], the λ max is 614 nm and the ε was determined as 14700. Besides, in data set [2], the “Solubility in methyl ethyl ketone” value was “.largecircle. (a solubility in the approximate range of 1 to 3% by weight)” and the Solubility in toluene entry was “.largecircle. (a solubility in the approximate range of 1 to 3% by weight)”.
In the case of `N#Cc1ccc(Nc2c(F)c3c(c(F)c2Nc2ccc(C#N)cc2)C(=O)c2c(O)ccc(O)c2C3=O)cc1` [(126)], in the data set “Color tone of the dye”, the Color tone entry is given as “Blue”. In data set [1], this compound displayed a λ max of 605 nm and a ε of 16600. In data set [2], the “Solubility in methyl ethyl ketone” value is listed as “Δ (a solubility of less than 1% by weight)” and the Solubility in toluene result is given as “Δ (a solubility of less than 1% by weight)”.
As to `CC(C)(C)c1ccc(Nc2c(F)c3c(c(F)c2Nc2ccc(C(C)(C)C)cc2)C(=O)c2c(O)ccc(O)c2C3=O)cc1` [(130)], the Color tone result in “Color tone of the dye” is listed as “Cyan”. In data set [1], this compound came in with a λ max of 660 nm and a ε of 26700. Further, in data set [2], the “Solubility in methyl ethyl ketone” value was “.largecircle. (a solubility in the approximate range of 1 to 3% by weight)” and the Solubility in toluene result was “.largecircle. (a solubility in the approximate range of 1 to 3% by weight)”.
`COc1ccccc1Nc1c(F)c2c(c(F)c1Nc1ccccc1OC)C(=O)c1c(O)ccc(O)c1C2=O` [(131)]: the Color tone result in “Color tone of the dye” is “Cyan”. Also, in data set [1], the λ max came to 661 nm and the ε is on record as 15600. In addition, in data set [2], the “Solubility in methyl ethyl ketone” value is reported as “.largecircle. (a solubility in the approximate range of 1 to 3% by weight)” and the Solubility in toluene entry is recorded as “.largecircle. (a solubility in the approximate range of 1 to 3% by weight)”.
`COc1ccc(Nc2c(F)c3c(c(F)c2Nc2ccc(OC)cc2)C(=O)c2c(O)ccc(O)c2C3=O)cc1` [(132)]: the Color tone result in the data set “Color tone of the dye” is on record as “Cyan”. In data set [1], this compound had a λ max of 649 nm and a ε of 13400. Besides, in data set [2], the “Solubility in methyl ethyl ketone” value is reported as “.largecircle. (a solubility in the approximate range of 1 to 3% by weight)” and the Solubility in toluene entry is listed as “.largecircle. (a solubility in the approximate range of 1 to 3% by weight)”.
`COc1cccc(Nc2c(F)c3c(c(F)c2Nc2cccc(OC)c2)C(=O)c2c(O)ccc(O)c2C3=O)c1` [(133)]: the Color tone result in “Color tone of the dye” is on record as “Cyan”. Also, in data set [1], the λ max came to 651 nm and the ε worked out at 13400. Also, in data set [2], the “Solubility in methyl ethyl ketone” value is recorded as “.largecircle. (a solubility in the approximate range of 1 to 3% by weight)” and the Solubility in toluene result is “.largecircle. (a solubility in the approximate range of 1 to 3% by weight)”.
For the compound `O=C1c2c(O)ccc(O)c2C(=O)c2c(F)c(Nc3c(Cl)cccc3Cl)c(Nc3c(Cl)cccc3Cl)c(F)c21` [(138)], the Color tone entry in the data set “Color tone of the dye” is “Blue”. In data set [1], this compound yielded a λ max of 630 nm and a ε of 22300. In addition, in data set [2], the “Solubility in methyl ethyl ketone” value was “.largecircle. (a solubility in the approximate range of 1 to 3% by weight)” and the Solubility in toluene entry is recorded as “.largecircle. (a solubility in the approximate range of 1 to 3% by weight)”.
On to `CCCCNc1c(F)c2c(c(F)c1Nc1cccc(C(=O)OCC)c1)C(=O)c1c(O)ccc(O)c1C2=O` [(227)], for which, in “Color tone of the dye”, the Color tone entry was “Cyan”. In data set [1], this compound gave a λ max of 661 nm and a ε of 21000. Also, in data set [2], the “Solubility in methyl ethyl ketone” value is “.largecircle. (a solubility in the approximate range of 1 to 3% by weight)” and the Solubility in toluene entry is reported as “.largecircle. (a solubility in the approximate range of 1 to 3% by weight)”.
In the case of `CCCCNc1c(F)c2c(c(F)c1Nc1ccc(OC)cc1)C(=O)c1c(O)ccc(O)c1C2=O` [(228)], the Color tone entry in the data set “Color tone of the dye” is given as “Cyan”. In data set [1], this compound returned a λ max of 666 nm and a ε of 22800. For the same compound, in data set [2], the “Solubility in methyl ethyl ketone” value was “.largecircle. (a solubility in the approximate range of 1 to 3% by weight)” and the Solubility in toluene entry is “.largecircle. (a solubility in the approximate range of 1 to 3% by weight)”.
Consider `CCCCNc1c(F)c2c(c(F)c1Nc1ccccc1)C(=O)c1c(O)ccc(O)c1C2=O` [(229)], for which the Color tone result in the data set “Color tone of the dye” is “Cyan”. In data set [1], this compound gave a λ max of 666 nm and a ε of 15300. In addition, in data set [2], the “Solubility in methyl ethyl ketone” value is listed as “.largecircle. (a solubility in the approximate range of 1 to 3% by weight)” and the Solubility in toluene result was “.largecircle. (a solubility in the approximate range of 1 to 3% by weight)”.
Take `CCCCNc1c(F)c2c(c(NCCCC)c1NCCCC)C(=O)c1c(O)ccc(O)c1C2=O` [(248)]: in the data set “Color tone of the dye”, the Color tone result is on record as “Blue”. In data set [1], this compound showed a λ max of 614 nm and a ε of 14900. For the same compound, in data set [2], the “Solubility in methyl ethyl ketone” value was “.largecircle. (a solubility in the approximate range of 1 to 3% by weight)” and the Solubility in toluene result is “.largecircle. (a solubility in the approximate range of 1 to 3% by weight)”.
